Results taken from patent US12497411B2, “Muscarinic acetylcholine receptor subtype 4 antagonists in the treatment of anemia” (COLD SPRING HARBOR LABORATORY, priority 2019, dated 2025).

How the values were obtained:
[1] = biological target: T1, human recombinant CHRM2 receptor (Homo sapiens, UniProt P08172); assay: Radioligand binding assay, CHRM2; settings: [3H]AF-DX 384 (2 nM), CHO cell membranes, 60 minutes at room temperature; read-out: Ki M2
T1 construct: expressed in transfected cells; host or cells: CHO cells (membranes)
T1 sequence (P08172 1-466): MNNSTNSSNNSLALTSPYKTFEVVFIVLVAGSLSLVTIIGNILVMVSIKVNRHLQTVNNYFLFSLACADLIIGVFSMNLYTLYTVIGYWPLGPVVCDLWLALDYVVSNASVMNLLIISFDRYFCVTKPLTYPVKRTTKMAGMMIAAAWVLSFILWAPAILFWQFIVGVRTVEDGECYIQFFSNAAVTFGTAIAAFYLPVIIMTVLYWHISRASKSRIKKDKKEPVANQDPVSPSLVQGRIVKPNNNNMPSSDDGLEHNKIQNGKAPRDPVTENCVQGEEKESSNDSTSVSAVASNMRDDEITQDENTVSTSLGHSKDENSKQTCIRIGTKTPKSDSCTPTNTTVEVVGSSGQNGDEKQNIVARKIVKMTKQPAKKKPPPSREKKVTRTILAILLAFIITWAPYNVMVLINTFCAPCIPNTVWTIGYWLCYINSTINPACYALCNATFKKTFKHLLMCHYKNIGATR
Description: (§1) PD102807 and Compounds A-K at concentrations of 1×10^−9 M, 1×10^−8 M, 1×10^−7 M, 1×10^−6 M, and 1×10^−5 M were tested in standard binding assays with radioligands and cell membranes with receptors. Compound binding was calculated as a percent inhibition of the binding of a radioactively labeled ligand specific for each target, and the Ki values were determined. For CHRM1, the binding assay was performed using [^3H]pirenzepine (2 nM) as a radioligand and membranes of CHO cells with human recombinant CHRM1 receptor. The incubation time was 60 minutes at room temperature. For CHRM2, the binding assay was performed using [^3H]AF-DX 384 (2 nM) as a radioligand and membranes of CHO cells with human recombinant CHRM2 receptor. The incubation time was also 60 minutes at room temperature. For CHRM3, the binding assay was performed using [^3H]4-DAMP (0.2 nM) as a radioligand and membranes of CHO cells with human recombinant CHRM3 receptor. The incubation time was also 60 minutes at room temperature. For CHRM4, the binding assay was performed using [^3H]4-DAMP (0.2 nM) as a radioligand and membranes of CHO cells with human recombinant CHRM4 receptor. The incubation time was also 60 minutes at room temperature. For CHRM5, the binding assay was performed using [^3H]4-DAMP (0.3 nM) as a radioligand and membranes of CHO cells with human recombinant CHRM5 receptor. The incubation time was also 60 minutes at room temperature.

[2] = Pharmacokinetic profile (plasma) and brain penetration assay; assay type: in vivo, mouse; settings: mice, intraperitoneal injection, plasma and brain by LC-MS/MS
Description: PD102807 and Compounds A and B were intraperitoneally injected into mice. Blood was collected at each time point, and transferred tubes containing anticoagulant were centrifuged to obtain plasma. Brain samples were collected each time point and then quick frozen in liquid nitrogen and kept at −75±15° C. Brain samples were homogenized. Concentrations of PD102807 and Compound A and B in the plasma and brain samples were analyzed using the LC-MS/MS method. […] Compound G was intraperitoneally injected into mice. Blood was collected at each time point, and transferred tubes containing anticoagulant were centrifuged to obtain plasma. Brain samples were collected each time point and then quick frozen in liquid nitrogen and kept at −75±15° C. Brain samples were homogenized. Concentrations of Compound G in the plasma and brain samples were analyzed using the LC-MS/MS method.

[3] = biological target: T2, human recombinant CHRM1 receptor (Homo sapiens, UniProt P11229); assay: Radioligand binding assay, CHRM1; settings: [3H]pirenzepine (2 nM), CHO cell membranes, 60 minutes at room temperature; read-out: Ki M1
T2 construct: expressed in transfected cells; host or cells: CHO cells (membranes)
T2 sequence (P11229 1-460): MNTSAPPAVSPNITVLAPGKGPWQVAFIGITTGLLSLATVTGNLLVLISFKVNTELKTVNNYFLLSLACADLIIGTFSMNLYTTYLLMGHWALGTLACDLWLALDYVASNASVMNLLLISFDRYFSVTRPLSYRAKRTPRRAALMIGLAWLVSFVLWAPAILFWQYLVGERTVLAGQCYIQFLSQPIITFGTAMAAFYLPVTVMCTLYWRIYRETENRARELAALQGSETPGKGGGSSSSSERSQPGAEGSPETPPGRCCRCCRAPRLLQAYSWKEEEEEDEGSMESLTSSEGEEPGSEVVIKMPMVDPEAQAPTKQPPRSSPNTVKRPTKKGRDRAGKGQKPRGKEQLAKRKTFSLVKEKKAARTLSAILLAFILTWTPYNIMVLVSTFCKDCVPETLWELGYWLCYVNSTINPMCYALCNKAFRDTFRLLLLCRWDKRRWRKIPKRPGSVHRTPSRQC
Description: as §1

CHRM4 = biological target: T3, CHRM4 (Homo sapiens, UniProt P08173); assay: Radioligand binding assay, CHRM4; set-up: expressed in transfected cells; host or cells: CHO cells (membranes); settings: [3H]4-DAMP (0.2 nM), CHO cell membranes, 60 minutes at room temperature; read-out: Ki M4
T3 sequence (P08173 1-479): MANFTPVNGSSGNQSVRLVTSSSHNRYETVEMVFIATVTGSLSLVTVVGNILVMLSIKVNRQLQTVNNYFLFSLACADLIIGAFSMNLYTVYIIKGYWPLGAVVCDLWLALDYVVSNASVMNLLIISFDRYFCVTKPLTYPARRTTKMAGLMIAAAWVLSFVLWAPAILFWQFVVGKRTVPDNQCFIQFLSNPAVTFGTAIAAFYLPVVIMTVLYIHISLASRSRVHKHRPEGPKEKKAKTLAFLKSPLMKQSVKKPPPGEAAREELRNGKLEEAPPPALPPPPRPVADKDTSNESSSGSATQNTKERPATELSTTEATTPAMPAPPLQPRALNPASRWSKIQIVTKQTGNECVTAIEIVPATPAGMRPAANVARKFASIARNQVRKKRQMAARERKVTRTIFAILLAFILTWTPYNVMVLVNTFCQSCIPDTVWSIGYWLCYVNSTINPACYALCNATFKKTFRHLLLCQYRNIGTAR
Description: as §1

[4] = biological target: T4, human recombinant CHRM3 receptor (Homo sapiens, UniProt P20309); assay: Radioligand binding assay, CHRM3; settings: [3H]4-DAMP (0.2 nM), CHO cell membranes, 60 minutes at room temperature; read-out: Ki M3
T4 construct: expressed in transfected cells; host or cells: CHO cells (membranes)
Description: as §1

[5] = system: Human CD34+ hematopoietic stem and progenitor cells; assay: Human CD34+ cell culture and counting; assay type: cell-based; settings: human CD34+ HSPC culture, oxyphenonium bromide (200 μM)
Description: Human CD34+ hematopoietic stem and progenitor cells (HSPCs) were cultured in StemSpan™ SFEM medium containing rhSCF (20 ng/ml), rhIL-3 (5 ng/ml) and EPO (1 U/ml) with various concentrations of dexamethasone and oxyphenonium. Total numbers of cells were counted using a flow-cytometer. For colony formation assay, day 8 cultured cells were plated into methylcellulose medium MethoCult™ H4034 Optimum and BFU-E colonies were counted after 13 days.

Mouse BFU-Es [6] = assay: BFU-E colony formation assay; assay type: cell-based; settings: Day 6 cultured BFU-Es plated on methylcellulose, colonies counted 9 days later
[7] = system: hemolysis, MDS, and aging mouse models; assay: Hemolysis, MDS and aging anemia mouse models (oxyphenonium bromide); assay type: in vivo; settings: 25 mg/kg intraperitoneally
Description: (§2) Primary mouse BFU-Es were isolated from mouse embryonic day 14.5 (E14.5) fetal liver and cultured in StemSpan serum-free expansion medium, and the numbers of cells formed were counted during culture. BFU-Es were infected with either viruses encoding control shRNA or viruses encoding shRNAs targeting Chrm4, and numbers of GFP+ cells formed during culture were counted. DMSO or 25 mg/kg oxyphenonium bromide was intraperitoneally injected into the hemolysis mouse model, Mx1-cre Srsf2 P95H/WT MDS mouse model, and aging mouse model. Complete blood count (CBC) was performed after compound injection. CREB ChIP-Seq was performed on BFU-Es after culture with 100 μM oxyphenonium bromide for 45 minutes. RNA-Seq was performed in BFU-Es after being cultured with DMSO or oxyphenonium bromide for 3 days.
4-6 weeks old C57bl/6 mice were intraperitoneally injected with either control DMSO or compound every day for 3 days. On day 4, mice were intraperitoneally injected with 60 mg/kg PHZ. Mice were then intraperitoneally injected with either compound or control DMSO every day for another 3 days. Peripheral blood samples were collected retro-orbitally using heparinized capillary tubes in blood collection tubes with K2-EDTA. CBC was performed using Hemavet® 950. […]

Mouse BFU-Es [8] = assay: Primary mouse BFU-E culture assay (cell expansion); assay type: cell-based
Description: as §2
BFU-Es were isolated from mouse embryonic day 14.5 fetal liver using fluorescence-activated cell sorting (FACS) method previously described (Flygare et al., Blood 117, 3435-3444 (2011)). BFU-Es were cultured in StemSpan SFEM II medium containing rmSCF (100 ng/ml), EPO (2 U/ml), rmIGF-1 (40 ng/ml), dexamethasone (1 nmol/ml or 10 nmol/ml), oxyphenonium bromide ([…]), and orphenadrine citrate (1 μmol/ml).
BFU-Es were isolated from mouse embryonic day 14.5 fetal liver using fluorescence-activated cell sorting (FACS) method. BFU-Es were cultured in StemSpan SFEM II medium containing rmSCF (100 ng/ml), EPO (2 U/ml), rmIGF-1 (40 ng/ml), dexamethasone (1 nM), together with either DMSO, PCS1055 (5 nM), or PD102807 (3 nM). Numbers of cell formed were counted during in vitro culture.
FIGS. 7 and 8 show the results of the primary BFU-E culture assay. […] Highly purified BFU-Es were isolated as lin-Ter-119-CD16/CD32-Sca-1-CD41-c-Kit+CD71/Cd24a^10% low population using the fluorescence-activated cell sorting (FACS) method. BFU-Es were cultured in medium containing rmSCF, EPO, and rmIGF-1, in the presence of PD102807 or Compounds A-K at indicated concentrations.

[9] = system: phosphorylated CREB in BFU-Es; assay: Phospho-CREB immunofluorescence; assay type: cell-based, mouse; settings: 100 μM oxyphenonium, 45 to 60 min
Description: Freshly isolated BFU-Es were serum starved for 1 hour and treated with either DMSO or 100 μM oxyphenonium for 45 to 60 min. 10^4 cells were collected on Poly L-Lysine coated slides using cytospin. Cells were fixed with 2% paraformaldehyde for 15 min, followed with permeabilization using 0.1% Triton X-100 for 15 min and with 2% BSA solution block for 30 min. Cells were incubated with phospho-CREB antibody (phospho […], Abeam, ab32096, 1:250) in 2% BSA for 1 hour and then incubated with FITC conjugated goat anti-mouse secondary antibody (Abcam, ab97022, 1:500) and FITC conjugated goat anti-rabbit secondary antibody (Abcam, ab97050, 1:500) in 2% BSA solution for 30 min. Cells were then incubated with DAPI for 5 min and then mounted with mounting solution.

Mouse BFU-Es [10] = assay: Ter119 antibody staining, flow cytometry; assay type: cell-based; settings: with or without oxyphenonium bromide, after 12 days of culture

T4 sequence (P20309 whole entry): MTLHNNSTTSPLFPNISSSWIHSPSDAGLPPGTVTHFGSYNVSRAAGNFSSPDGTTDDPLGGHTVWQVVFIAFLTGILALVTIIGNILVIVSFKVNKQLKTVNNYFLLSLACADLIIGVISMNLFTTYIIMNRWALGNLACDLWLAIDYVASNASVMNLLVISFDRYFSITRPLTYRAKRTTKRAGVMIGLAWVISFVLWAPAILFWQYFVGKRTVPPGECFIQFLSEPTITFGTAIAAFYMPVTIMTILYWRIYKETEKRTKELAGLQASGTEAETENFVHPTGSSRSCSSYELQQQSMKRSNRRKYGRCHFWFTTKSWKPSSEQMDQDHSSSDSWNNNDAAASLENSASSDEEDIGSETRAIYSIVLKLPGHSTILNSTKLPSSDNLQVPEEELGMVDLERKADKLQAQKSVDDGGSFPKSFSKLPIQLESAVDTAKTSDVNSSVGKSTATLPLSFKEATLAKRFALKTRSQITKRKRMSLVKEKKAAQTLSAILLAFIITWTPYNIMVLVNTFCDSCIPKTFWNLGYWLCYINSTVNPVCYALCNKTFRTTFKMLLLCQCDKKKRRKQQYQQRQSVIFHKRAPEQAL

Ki [1] [nM] | brain penetration in comparison to PD102807 [2] | Ki [3] [µM] | Ki (CHRM4) [nM] | Ki [4] [nM] | SMILES | expansion of erythroid cells [5] [fold] | formation of BFU-E colonies (Mouse BFU-Es [6]) [fold] | correction of anemia in vivo [7] | production of more erythrocytes from BFU-E (Mouse BFU-Es [8]; 100 μM oxyphenonium bromide, vs culture without compound) [fold] | BFU-E expansion (test of GPCR agonists and antagonists) (Mouse BFU-Es [8]; mouse BFU-E culture) | nuclear localization of phosphorylated CREB [9] | percentage of Ter119+ differentiated cells (Mouse BFU-Es [10])
760 | reduced brain penetration | 4.4 | 1500 | 400 | CCOC(=O)c1c(C)n(C)c2ccc(OC)c(C[N+]3(C)CCc4cc(OC)ccc4C3)c12.[I-] (stereo not drawn) [Compound G, 2-((3-(ethoxycarbonyl)-5-methoxy-1,2-dimethyl-1H-indol-4-yl)methyl)-6-methoxy-2-methyl-1,2,3,4-tetrahydroisoquinolin-2-ium Iodide] |  |  |  |  |  |  | 
 |  |  |  |  | CC[N+](C)(CC)CCOC(=O)C(O)(c1ccccc1)C1CCCCC1 (stereo not drawn) [oxyphenonium bromide] | 2 to 4 | ~2 | corrects anemia in vivo | ~10 | triggered BFU-E expansion | increase in nuclear localization | no difference
